“Also recorded” adds a separate entry of the source. Where two headings read alike, the source gives them in different places.
Legend:
[1] = target: T1, dCK (Homo sapiens, UniProt P27707); experiment: Inhibition of [3H]-deoxycytidine (dCyd) uptake by CEM cells; format: cell-based; settings: read-out: dCKi-IC-50
T1 construct: endogenous in cells; host or cells: CEM cells
Method: 50,000 CEM cells/well were added to Millipore MultiScreen GV 96 well plates. Cells were resuspended at […] and incubated for 30 minutes at 37° C. The drug dilution plate was prepared by starting with an initial drug concentration of 10 mM in DMSO, and proceeding to make 1:5 dilutions for drug. […] and mixed by pipetting 10 times before removing 10 uL for next well (1:5 serial dilutions). The media and tritiated deoxycytidine was mixed together. […] of media/probe mixture was added to each well of an Optiplate. […] from drug plate was added to each well in the Optiplate to obtain drug/media/probe mixture and mixed. […] of drug/media/probe mixture from Optiplate was added to the cell plate and incubate at 37° C. for 1 hour. The cell plate was placed on vacuum to aspirate, and then washed with ice cold PBS: […] 1×PBS 4 times. The backing of the plate was peeled off, and the plate was placed in dryer for at least 30 minutes or until dry at 37° C. […] Scintillation fluid per well was added, and the plate was sealed with clear plate seal. The plate was read on the Microbeta instrument.

[2] = tested on: HUKEMIA Acute Myeloid Leukemia model AM-7577; experiment: Acute myeloid leukemia study, HUKEMIA model AM-7577 in NOD/SCID mice; format: in vivo, Mus Musculus; settings: for ILS (increase in life-span): vs vehicle group
Method: In this study, NOD/SCID mice were injected (i.v.) with cells from a human donor diagnosed with AML (IDH2, FLT3-ITD, DNMT3A, and CEBPA mutations identified). Tumor burden was assessed by evaluation of human CD45 positive leukemia cells using FACS. The primary end point was animal survival. Median survival time (MST) and increase in life-span (ILS) were calculated for all animals.
The animals were inoculated HUKEMIA® Model AM-7577. The vehicle and treatment injections were started on Day 9 post cell inoculation Day 10 post cell inoculation, respectively.
Weekly Monitoring: Body weight was monitored twice a week. Human leukemia cells was detected by FACS weekly by CD45.
Endpoints and/or Termination: The end points varied according to the tumor burden growth in Vehicle group. The major end point was animal survival. The survival of all animals was followed and median survival time (MST) was calculated for each group. The increase in life-span (ILS) was calculated as follows: ILS (%)=100×[(Median Survival Time of drug treated group/Median Survival Time of vehicle group)−1](%).
Statistical Analysis: Data was evaluated using one way ANOVA. All data was analyzed using Prism 5.0 and IBM SPSS Statistics 19.0. p<0.05 was considered to be statistically significant.

[3] = target: dCK (Mus musculus, UniProt P43346); experiment: Inhibition of dCK activity in vivo by [18F]L-FAC PET/CT imaging; settings: mice, IP injection, [18F]L-FAC 4 h after treatment
Method: [^18F]L-FAC PET/CT scans were performed as described in Shu, C.

[4] = tested on: p185BCR-ABL/Arf-/- pre-B ALL cells; experiment: Acute lymphoblastic leukemia (ALL) model, bioluminescence imaging; format: in vivo, NSG mice; settings: 50 mg/kg, days 4, 6, 8, 11 after inoculation
Method: The efficacy of Compound 9R and (R)-DI-82 single agent therapy against short-term cultures of murine BCR-ABL (p185), Arf^−/− pre-B ALL cells (p185^BCR-ABL/Arf^−/−) was assessed. This assay was previously described in Boulos, N. et al., 2011. “Chemotherapeutic agents circumvent emergence of dasatinib-resistant BCR-ABL kinase mutations in a precise mouse model of Philadelphia chromosome-positive acute lymphoblastic leukemia, Blood, 117:3585-3595 and Nathanson, D. 2014 “Co-targeting of convergent nucleotide biosynthetic pathways for leukemia eradication” J. Exp. Med. 211(3): 473-486, all of which are incorporated herein by reference.
Bioluminescent imaging and data analysis were performed using a Xenogen IVIS-200 system and Living Image Version 3.01 software (Caliper Life Sciences). […] Total flux measurements (photons/second) were quantified over the whole-animal body or a contour drawn around a target organ. […]
To evaluate the efficacy of Compound 9R and (R)-DI-82 in an in vivo B-ALL model, firefly luciferase—marked p185^BCR-ABL/Arf^−/− cells were inoculated intravenously in NSG mice. 4 days, 6 days, 8 days and 11 days after inoculation, bioluminescence imaging (BLI) of firefly luciferase-marked p185^BCR-ABL/Arf^−/− ALL-bearing NSG mice treated with 50 mg/kg compound 9R or 50 mg/kg (R)-DI-82 were measured. […]

T1 sequence (P27707 whole entry): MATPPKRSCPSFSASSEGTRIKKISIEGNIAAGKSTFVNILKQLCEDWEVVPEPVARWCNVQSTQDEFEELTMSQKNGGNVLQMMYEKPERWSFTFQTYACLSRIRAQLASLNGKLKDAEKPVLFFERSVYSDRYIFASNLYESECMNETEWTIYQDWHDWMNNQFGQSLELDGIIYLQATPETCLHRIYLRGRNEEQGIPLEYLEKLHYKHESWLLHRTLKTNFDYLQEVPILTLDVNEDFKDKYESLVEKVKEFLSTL
Chain of dCK (Mus musculus, UniProt P43346) (P43346 whole entry): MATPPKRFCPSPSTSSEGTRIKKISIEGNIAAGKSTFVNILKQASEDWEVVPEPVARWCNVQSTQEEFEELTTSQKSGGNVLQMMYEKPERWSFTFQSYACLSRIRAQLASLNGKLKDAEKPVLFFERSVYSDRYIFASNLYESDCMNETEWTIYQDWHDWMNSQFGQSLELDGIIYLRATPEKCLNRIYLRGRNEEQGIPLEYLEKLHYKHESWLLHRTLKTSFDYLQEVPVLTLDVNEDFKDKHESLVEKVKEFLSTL

COc1ccc(-c2nc([C@@H](C)Sc3nc(N)cc(N)n3)c(C)s2)cc1OCCN1CCOCC1 [Compound 9R, (R)-2-(1-(2-(4-methoxy-3-(2-morpholinoethoxy)phenyl)-5-methylthiazol-4-yl)ethylthio)pyrimidine-4,6-diamine]
IC50 ([1]; [3H]-dCyd uptake): 3.15 nM
IC50 ([1]; [3H]dC uptake, 0 mg/mL BSA): 4.03 nM
IC50 ([1]; [3H]dC uptake, 25 mg/mL BSA): 6.87 nM
IC50 ([1]; [3H]dC uptake, 50 mg/mL BSA): 11.6 nM
tumor burden growth (human CD45 by FACS) ([2]; 25 mg/Kg): significant increase post cells inoculation day 29
Median survival ([2]; 25 mg/kg po BID x 46 days): 49 days
ILS (increase in life-span) ([2]; 25 mg/kg po BID): 0%
tumor burden growth (human CD45 by FACS) ([2]; 50 mg/Kg): slowly increased during Day 29 to Day 44 post cell inoculation
Median survival ([2]; 50 mg/kg po BID x 46 days): 54 days
ILS (increase in life-span) ([2]; 50 mg/kg po BID): 10%
tumor burden growth (human CD45 by FACS) ([2]; 100 mg/Kg): slowly increased during Day 29 to Day 44 post cell inoculation
Median survival ([2]; 100 mg/kg po BID x 46 days): 54 days
ILS (increase in life-span) ([2]; 100 mg/kg po BID): 10%
tumor burden in peripheral blood vs vehicle ([2]; 100 mg/kg, day 44 post cell inoculation, p=0.021): significant antitumor effects
inhibition of dCK activity in vivo ([18F]L-FAC PET/CT) [3]: strongly inhibit dCK activity in vivo; also recorded: greater inhibition of dCK

COc1ccc(-c2nc([C@H](C)Sc3nc(N)cc(N)n3)c(C)s2)cc1OCCN1CCOCC1 [Compound 9S, (S)-2-(1-(2-(4-methoxy-3-(2-morpholinoethoxy)phenyl)-5-methylthiazol-4-yl)ethylthio)pyrimidine-4,6-diamine]
IC50 ([1]; [3H]-dCyd uptake): 468 nM

COc1ccc(-c2nc([C@@H](C)Sc3nc(N)cc(N)n3)c(C)s2)cc1OCCNS(C)(=O)=O [(R)-DI-82, (R)—N-(2-(5-(4-(1-(4,6-diaminopyrimidin-2-ylthio)ethyl)-5-methylthiazol-2-yl)-2-methoxyphenoxy)ethyl)methanesulfonamide]
efficacy in the p185BCR-ABL/Arf-/- ALL model (bioluminescence) [4]: show efficacy

— patent publication US10570124B2, “Deoxycytidine kinase binding compounds” (THE REGENTS OF THE UNIVERSITY OF CALIFORNIA, priority 2016, dated 2020)
